What was measured:
HLA-HHDII/DP4 mice = assay: Ex vivo IFNγ ELISpot after peptide immunisation, HHDII/DP4 mice; type: in vivo, mouse; details: for IFNγ ELISpot response: 3 immunisations with CpG/MPLA, day 21
Procedure: C57BL/6 mice (Charles River, UK), HLA-DR4 mice (Model #4149, Taconic, USA), HLA-A2/DR1 (HHDII/DR1, Pasteur Institute), HLA-A2.1+/+HLA-DP4+/+hCD4+/+ (HLA-HHDII/DP4) transgenic mice (EM: 02221, European Mouse Mutant Archive) described in patent WO2013/017545 A1 (EMMA repository, France) were used, aged between 8 and 12 weeks. Peptides were dissolved in PBS to 1 mg/ml and then emulsified (a series of dilutions) with CpG ODN 1826 and MPLA 6 μg/mouse of each (Invivogen, UK). Peptides (25 μg/mouse) were injected subcutaneously at the base of the tail. Mice were immunised at days 1, 7 and 14 for peptide immunisation. Spleens were removed for analysis at day 21 unless stated otherwise.
ELISpot assays were performed using murine IFNγ, IL-17 and IL-10 capture and detection reagents according to the manufacturer's instructions (Mabtech, Sweden). In brief, anti-IFNγ, IL-17 and IL-10 specific antibodies were coated onto wells of 96-well Immobilin-P plate. Synthetic peptides (at various concentrations) and 5×10^5 per well splenocytes were added to wells of the plate in quadruplicate Tumour target cells were added where relevant at 5×10^4/well in triplicate and plates incubated for 40 hrs at 37° C. After incubation, captured IFNγ, IL-10 and IL-17 were detected by biotinylated anti-IFNγ, IL-10 and IL-17 antibodies and developed with a streptavidin alkaline phosphatase and chromogenic substrate. Lipopolysaccharide (LPS; 5 μg/ml) was used as a positive control. For MHC blocking studies, anti-CD4 blocking antibody (GK1.5) or anti-CD4 blocking antibody (RPA-T4) for HHDII/DP4 mice which express human CD4 and anti-CD8 blocking antibody (2.43) from Bioxcell were used at 20 μg/ml. Spots were analysed and counted using an automated plate reader (Cellular Technologies Ltd).
Screening was performed to identify potential homocitrullinated ALDOA epitopes in transgenic HHDII/DP4 and HHDII/DR1 mice. Mice were immunised with pools of human homocitrullinated peptides. […] Each pool was administered as three immunisations containing 20 μg of each peptide and CpG/MPLA as an adjuvant. After 21 days the mice were culled and the immune responses to each peptide within the immunising pool were assessed by ex vivo ELISpot in HHDII/DP4 (FIG. 4b) and HHDII/DR1 mice (FIG. 4d). […] Our predictions therefore identified 3/5 peptides which could induce a T cell response. […] Of the responding peptides ALDOA 74-93 Hcit and 140-157 Hcit peptides are homologous in human and mice therefore these two peptides were selected for further investigation. Minimal IL-10 (FIG. 6b) or IL-17 (FIG. 6c) responses were seen to Aldolase peptides in HHDII/DP4 mice.
Using this combination of predictions, 5 CyK8 peptides containing homocitrulline were synthesised (Table 4). Screening was performed to identify potential homocitrullinated Cyk8 epitopes in transgenic HHDII/DP4. Mice were immunised with pools of human homocitrullinated peptides. […] Each pool was administered as three immunisations containing 20 μg of each peptide and CpG/MPLA as an adjuvant. After 21 days the mice were culled and the immune responses to each peptide within the immunising pool were assessed by ex vivo ELISpot in HHDII/DP4 (FIG. 10a). […] The responses to CyK8 101-120 Hcit, 112-131 Hcit, 182-201 Hcit, 371-388 Hcit and 381-399 Hcit immunisation were characterised for cross reactivity to the wt peptide sequence. […] Thus a key characteristic of immunogenic peptides is they express homocitrulline. All of these peptides (100%) were immunogenic. Thus a high predicted HLA-DP4 binding affinity (<30), the presence of homocitrulline residues in the core region, the peptide being amphipathic in nature with a predominantely spiral conformational structure upon 3D modelling, and the existence of homology between the mouse and human sequences defines immunogenicity. When this model was applied retrospectively to include the vimentin and ALDOA peptides 8/9 (88%) were correctly predicted. […]

[1] = system: B16HHDII/iDP4 tumour cells; assay: Tumour therapy, B16HHDII/iDP4 tumour in HHDII/DP4 mice; type: in vivo, mouse; details: peptide with CpG/MPLA
Procedure: For tumour challenge experiments, mice were challenged with B16F1 cells s.c. on the right flank 3 days before primary immunisation (unless stated otherwise) and subsequently immunised as above. Tumour implants were carried out at dose of 2.5×10^4 cells/mouse for B16F1, 2.5×10^4 cells/mouse for B16F1 DR4, 4×10^5 cells/mouse for B16F1 HHDII/DP4, 5×10^5 cells/mouse for B16 HHDII/DR1, 1×10^5 cells/mouse for B16F1 HHDII/inducibleDP4, 5×10^4 cells/mouse for B16F1 inducible DR4. For studies involving depletion antibodies, 250 μg anti-mouse Ly6C antibody (clone Monts, BioXcell) was administered i.p. on days 8, 10, 12, 15, 17 and 19. 400 μg anti-mouse Ly6G antibody (clone 1A8, Biolegend) was administered i.p. on day 8 followed by 250 μg on days 11, 15 and 18. Anti-human CD4 antibody (clone OKT4, BioXcell) or anti-mouse CD8 antibody (clone 2.43, BioXcell) were administered at 500 μg dose on day 4 followed by 300 μg dose on days 8 and 11. Tumour growth was monitored twice weekly and mice were humanely euthanised once tumour reached ≥15 mm in diameter.
To provide further evidence for the role of CD4 T cell responses in tumour therapy HHDII/DP4 mice were implanted with B16HHDII/iDP4 tumour cells on day 1 and then immunised with peptides and CpG/MPLA on days 4, 8 and 11. Concurrent with peptide immunisation mice were also treated with CD4 or CD8 depleting antibody and tumour growth monitored. […] To show whether cyanate/isocyanic acid can cross cell membranes B16F1 melanoma cell line was cultured in vitro in the presence or absence of potassium cyanate which is in dynamic equilibrium with isocyanic acid. As a positive control lysates were also produced from in vitro cultured B16F1 cells and then treated with or without KCNO.

HLA-DP4 (human) [2] = molecular target: HLA-DP4 (human)
HLA-DP4 (human) [3] = assay: DP4 competition ELISA; competitor biotinylated Hep B peptide; 10 ug unlabelled against 10 ug biotinylated Hep B
[4] = splenocytes after 7 days culture

Sequence of HLA-DP4 (human) (P20036 29-260, chain 1 of 2): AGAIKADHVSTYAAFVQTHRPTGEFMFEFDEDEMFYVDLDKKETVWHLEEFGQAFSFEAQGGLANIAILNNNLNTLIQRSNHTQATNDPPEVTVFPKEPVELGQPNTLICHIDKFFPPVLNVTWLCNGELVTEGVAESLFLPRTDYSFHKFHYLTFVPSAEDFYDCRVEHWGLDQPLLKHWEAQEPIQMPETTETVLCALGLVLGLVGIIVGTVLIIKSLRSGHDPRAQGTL
Sequence of HLA-DP4 (human) (P04440 30-258, chain 2 of 2, further chain): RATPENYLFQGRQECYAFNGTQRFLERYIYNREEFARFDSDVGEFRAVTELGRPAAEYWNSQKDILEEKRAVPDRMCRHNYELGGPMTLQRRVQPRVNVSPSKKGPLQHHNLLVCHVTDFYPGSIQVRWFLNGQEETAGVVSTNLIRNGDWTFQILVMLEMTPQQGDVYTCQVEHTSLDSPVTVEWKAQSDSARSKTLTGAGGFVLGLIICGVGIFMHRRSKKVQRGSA

Row | Substance | cross reactivity of Hcit response to wt peptide (HLA-HHDII/DP4 mice) | IFNγ ELISpot response (HLA-HHDII/DP4 mice) | IFNγ response in presence of CD8 blocking antibody (HLA-HHDII/DP4 mice; [4]) | tumour growth / survival vs control [1] | OD (HLA-DP4 (human) [2]) | IFNγ response in presence of CD4 blocking antibody (HLA-HHDII/DP4 mice; [4]) | % inhibition (HLA-DP4 (human) [3]) [%]
1 | A-Hcit-FINYV-Hcit-NCFRMTDQEAIQDL [NPM 266-287 Hcit] | significantly higher | stimulation of IFNγ responses | lost | Significant prevention of tumour growth | – | – | –
2 | Biotinylated Hep B 181-192 peptide | – | – | – | – | 0.85 OD (450 nm) | – | –
3 | FSLADAINTEF-Hcit-NTRTNE-Hcit-VELQ [Vimentin 86-108 Hcit] | – | stimulation of IFNγ responses | – | Significant prevention of tumour growth | – | loss of response | –
4 | GSHAGN-Hcit-LAMQEFMILPVGAA [Alpha enolase 156-176 Hcit] | – | stimulation of IFNγ responses | – | Significant prevention of tumour growth | – | lost | –
5 | Hep B 181-192 peptide (unlabelled) | – | – | – | – | – | – | 47
6 | RNELESYAYSL-Hcit-NQIGD-Hcit- [BiP 562-579 Hcit] | significantly higher | stimulation of IFNγ responses | – | Significant prevention of tumour growth | – | loss of response | –

— patent publication US12458688B2, “Epitopes” (Scancell Limited, priority 2018, dated 2025)
